# Experiments:
# rape = experiment: Test B pre/postemergence rape; type: in vivo, Brassica napus
# Outline: (§1)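 Test chemicals in a non-phytotoxic solvent mixture with surfactant were sprayed preemergence onto planted seeds and postemergence onto plants 2 to 18 cm tall (1- to 4-leaf stage). After twelve to sixteen days in a greenhouse, injury was visually rated against untreated controls from 0 (no effect) to 10 (complete control).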
# surinam grass = experiment: Test B pre/postemergence surinam grass; type: in vivo, Brachiaria decumbens
# Outline: as §1
# purple nutsedge = experiment: Test B pre/postemergence purple nutsedge; type: in vivo, Cyperus rotundus
# Outline: as §1
# soybean = experiment: Test B pre/postemergence soybean; type: in vivo, Glycine max; details: for Plant response rating, Soybean: Rate 500 g/ha
# Outline: as §1
# cocklebur = experiment: Test B pre/postemergence cocklebur; type: in vivo, Xanthium strumarium
# Outline: as §1
# velvetleaf = experiment: Test B pre/postemergence velvetleaf; type: in vivo, Abutilon theophrasti
# Outline: as §1
# blackgrass = experiment: Test B pre/postemergence blackgrass; type: in vivo, Alopecurus myosuroides
# Outline: as §1
# smallflower flatsedge = experiment: Test B flood test smallflower flatsedge; type: in vivo, Cyperus difformis
# Outline: (§2)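 Read-out is a visual response score from 0 (no effect) to 10 (complete control), assigned by comparison with untreated controls. Treatment was applied at the 2-leaf stage, and plants stayed in the greenhouse for twelve to sixteen days before scoring.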
# crabgrass = experiment: Test B pre/postemergence crabgrass; type: in vivo, Digitaria sanguinalis
# Outline: as §1
# rice = experiment: Test B flood test rice; type: in vivo, Oryza sativa
# Outline: as §2
# wheat = experiment: Test B pre/postemergence wheat; type: in vivo, Triticum aestivum
# Outline: as §1
# bamyardgrass = experiment: Test B flood test barnyardgrass; type: in vivo, Echinochloa crus-galli
# Outline: as §2
# corn = experiment: Test B pre/postemergence corn; type: in vivo, Zea mays
# Outline: as §1
# duck salad = experiment: Test B flood test duck salad; type: in vivo, Heteranthera limosa
# Outline: as §2
# sugar beet = experiment: Test B pre/postemergence sugar beet; type: in vivo, Beta vulgaris
# Outline: as §1
# giant foxtail = experiment: Test B pre/postemergence giant foxtail; type: in vivo, Setaria faberii
# Outline: as §1
# morningglory = experiment: Test B pre/postemergence morningglory; type: in vivo, Ipomoea hederacea
# Outline: as §1
# bedstraw = experiment: Test B pre/postemergence bedstraw; type: in vivo, Galium aparine; details: Preemergence
# Outline: as §1
# pigweed = experiment: Test B pre/postemergence pigweed; type: in vivo, Amaranthus retroflexus
# Outline: as §1
# wild oat = experiment: Test B pre/postemergence wild oat; type: in vivo, Avena fatua
# Outline: as §1
# [1] = Postemergence, Rate 62 g/ha, scale of 0 to 10, 0 is no effect, 10 is complete control
# [2] = Postemergence, Rate 125 g/ha, scale of 0 to 10 where 0 is no effect and 10 is complete control
# [3] = Postemergence, Rate 250 g/ha, scale of 0 to 10, 0 is no effect, 10 is complete control
# [4] = Postemergence, Rate 500 g/ha, scale of 0 to 10 where 0 is no effect and 10 is complete control
# [5] = Preemergence, Rate 62 g/ha, scale 0 to 10 (0 no effect, 10 complete control)
# [6] = Preemergence, Rate 125 g/ha, scale of 0 to 10 where 0 is no effect and 10 is complete control
# [7] = Preemergence, Rate 500 g/ha, scale of 0 to 10 where 0 is no effect and 10 is complete control
# [8] = Rate 62 g/ha, flood test species, Pre-emergence, visual evaluation after twelve to sixteen days
# [9] = Rate 125 g/ha, under heading Pre-emergence, flood test species, visual evaluation after twelve to sixteen days
# [10] = Rate 250 g/ha, Pre-emergence (flood test species), scale 0 to 10, 0 is no effect, 10 is complete control
# [11] = Rate 500 g/ha, Pre-emergence section of Table B, 0 to 10 scale (0 no effect, 10 complete control)
structure (smiles),measurement,setting,value
CC(C)N(C(=O)n1oc(=O)n(C(CF)CF)c1=O)c1ccc(F)cc1F [Compound 595],Rape plant response rating,rape; [1],0
same,"Plant response rating, Rape",rape; [2],0
same,Rape plant response rating,rape; [3],2
same,"Plant response rating, Rape",rape; [4],2
same,Rape plant response rating,rape; [5],4
same,Rape plant response rating,rape; [6],4
same,"Plant response rating, Rape",rape; [7],10
same,B. signalgrass plant response rating,surinam grass; [1],0
same,"Plant response rating, B. signalgrass",surinam grass; [2],0
same,B. signalgrass plant response rating,surinam grass; [3],6
same,"Plant response rating, B. signalgrass",surinam grass; [4],6
same,B. signalgrass plant response rating,surinam grass; [5],2
same,B. signalgrass plant response rating,surinam grass; [6],6
same,"B. signalgrass plant response rating (0 to 10 scale, 0 is no effect, 10 is complete control)","surinam grass; Preemergence, Rate 250 g/ha",7
same,B. signalgrass plant response rating,surinam grass; [7],9
same,Nutsedge plant response rating,purple nutsedge; [1],0
same,"Plant response rating, Nutsedge",purple nutsedge; [2],0
same,Nutsedge plant response rating,purple nutsedge; [3],0
same,"Plant response rating, Nutsedge",purple nutsedge; [4],5
same,Nutsedge plant response rating,purple nutsedge; [6],3
same,"Plant response rating, Nutsedge",purple nutsedge; [7],4
same,Soybean plant response rating,soybean; [3],4
same,"Plant response rating, Soybean","soybean; Postemergence, scale of 0 to 10 where 0 is no effect and 10 is complete control",4
same,Soybean plant response rating,soybean; [5],0
same,Soybean plant response rating,soybean; [6],1
same,"Plant response rating, Soybean","soybean; Preemergence, scale of 0 to 10 where 0 is no effect and 10 is complete control",4
same,Cocklebur plant response rating,cocklebur; [1],0
same,"Plant response rating, Cocklebur",cocklebur; [2],0
same,Cocklebur plant response rating,cocklebur; [3],0
same,"Plant response rating, Cocklebur",cocklebur; [4],2
same,Cocklebur plant response rating,cocklebur; [6],0
same,Cocklebur plant response rating (0 to 10 scale),"cocklebur; Preemergence, Rate 250 g/ha",0
same,"Plant response rating, Cocklebur",cocklebur; [7],0
same,"Plant response rating, Velvetleaf",velvetleaf; [2],4
same,Velvetleaf plant response rating,velvetleaf; [3],7
same,"Plant response rating, Velvetleaf",velvetleaf; [4],7
same,Velvetleaf plant response rating,velvetleaf; [5],7
same,Velvetleaf plant response rating,velvetleaf; [6],7
same,"Plant response rating, Velvetleaf",velvetleaf; [7],9
same,Blackgrass plant response rating,blackgrass; [1],3
same,"Plant response rating, Blackgrass",blackgrass; [2],7
same,Blackgrass plant response rating,blackgrass; [3],9
same,"Plant response rating, Blackgrass",blackgrass; [4],9
same,Blackgrass plant response rating,blackgrass; [5],6
same,Blackgrass plant response rating,blackgrass; [6],9
same,Blackgrass plant response rating (0 to 10 scale),"blackgrass; Preemergence, Rate 250 g/ha",10
same,Blackgrass plant response rating,blackgrass; [7],10
same,"Plant response rating, S. Flatsedge (0 to 10 scale, 0 is no effect, 10 is complete control)",smallflower flatsedge; [8],0
same,"S. Flatsedge plant response rating (0 to 10 scale, 0 is no effect, 10 is complete control)",smallflower flatsedge; [9],0
same,S. Flatsedge plant response rating,smallflower flatsedge; [10],0
same,S. Flatsedge plant response rating,smallflower flatsedge; [11],0
same,Crabgrass plant response rating,crabgrass; [1],5
same,"Plant response rating, Crabgrass",crabgrass; [2],8
same,Crabgrass plant response rating,crabgrass; [3],9
same,"Plant response rating, Crabgrass",crabgrass; [4],9
same,Crabgrass plant response rating,crabgrass; [5],7
same,Crabgrass plant response rating,crabgrass; [6],9
same,"Plant response rating, Crabgrass",crabgrass; [7],10
same,"Plant response rating, Rice (0 to 10 scale, 0 is no effect, 10 is complete control)",rice; [8],0
same,"Rice plant response rating (0 to 10 scale, 0 is no effect, 10 is complete control)",rice; [9],0
same,Rice plant response rating,rice; [10],0
same,Rice plant response rating,rice; [11],0
same,"Plant response rating, Wheat",wheat; [2],0
same,Wheat plant response rating,wheat; [3],2
same,"Plant response rating, Wheat",wheat; [4],3
same,Wheat plant response rating,wheat; [5],0
same,Wheat plant response rating,wheat; [6],1
same,"Plant response rating, Wheat",wheat; [7],6
same,"Plant response rating, Barnyardgrass (0 to 10 scale, 0 is no effect, 10 is complete control)",bamyardgrass; [8],0
same,"Barnyardgrass plant response rating (0 to 10 scale, 0 is no effect, 10 is complete control)",bamyardgrass; [9],0
same,Barnyardgrass plant response rating,bamyardgrass; [10],0
same,Barnyardgrass plant response rating,bamyardgrass; [11],0
same,Corn plant response rating,corn; [1],0
same,"Plant response rating, Corn",corn; [2],0
same,Corn plant response rating,corn; [3],2
same,"Plant response rating, Corn",corn; [4],3
same,Corn plant response rating,corn; [5],0
same,Corn plant response rating,corn; [6],0
same,Corn plant response rating (0 to 10 scale),"corn; Preemergence, Rate 250 g/ha",4
same,"Plant response rating, Corn",corn; [7],6
same,"Plant response rating, Ducksalad (0 to 10 scale, 0 is no effect, 10 is complete control)",duck salad; [8],0
same,"Ducksalad plant response rating (0 to 10 scale, 0 is no effect, 10 is complete control)",duck salad; [9],0
same,Ducksalad plant response rating,duck salad; [10],0
same,Ducksalad plant response rating,duck salad; [11],0
same,"Plant response rating, Sugarbeets",sugar beet; [2],3
same,Sugarbeets plant response rating,sugar beet; [3],3
same,"Plant response rating, Sugarbeets",sugar beet; [4],3
same,Sugarbeets plant response rating,sugar beet; [5],6
same,Sugarbeets plant response rating,sugar beet; [6],8
same,"Plant response rating, Sugarbeets",sugar beet; [7],9
same,Giant foxtail plant response rating,giant foxtail; [1],8
same,"Plant response rating, Giant foxtail",giant foxtail; [2],9
same,Giant foxtail plant response rating,giant foxtail; [3],9
same,"Plant response rating, Giant foxtail",giant foxtail; [4],9
same,Giant foxtail plant response rating,giant foxtail; [5],10
same,Giant foxtail plant response rating,giant foxtail; [6],10
same,"Plant response rating, Giant foxtail",giant foxtail; [7],9
same,Morningglory plant response rating,morningglory; [1],1
same,"Plant response rating, Morningglory",morningglory; [2],2
same,Morningglory plant response rating,morningglory; [3],3
same,"Plant response rating, Morningglory",morningglory; [4],6
same,Morningglory plant response rating,morningglory; [5],0
same,Morningglory plant response rating,morningglory; [6],0
same,"Plant response rating, Morningglory",morningglory; [7],6
same,Bedstraw plant response rating,"bedstraw; Rate 62 g/ha, scale 0 to 10 (0 no effect, 10 complete control)",0
same,Bedstraw plant response rating,"bedstraw; Rate 125 g/ha, scale of 0 to 10 where 0 is no effect and 10 is complete control",8
same,Bedstraw plant response rating,"bedstraw; Rate 500 g/ha, scale of 0 to 10 where 0 is no effect and 10 is complete control",10
same,"Plant response rating, Redroot pigweed",pigweed; [2],0
same,Redroot pigweed plant response rating,pigweed; [3],3
same,"Plant response rating, Redroot pigweed",pigweed; [4],7
same,Redroot pigweed plant response rating,pigweed; [5],0
same,Redroot pigweed plant response rating,pigweed; [6],10
same,"Plant response rating, Redroot pigweed",pigweed; [7],10
same,"Plant response rating, Wild oats",wild oat; [2],0
same,Wild oats plant response rating,wild oat; [3],2
same,"Plant response rating, Wild oats",wild oat; [4],4
same,Wild oats plant response rating,wild oat; [5],3
same,Wild oats plant response rating,wild oat; [6],8
same,"Plant response rating, Wild oats",wild oat; [7],9

# Source: patent US6737383B1, “Herbicidal oxadiazolidines” (priority 1999, dated 2004)
